Publication PMC8719450 (Xenobiotica; the fate of foreign compounds in biological …, 2021)
Like-named read-outs stand apart in the source and are kept apart here.

Key:
[1] = test system: liver microsomes of human sample HH2; assay: Oxidation of flavonoids by human liver microsomes, sample HH2; format: in vitro ADME
[2] = target: CYP2C9 (Homo sapiens, UniProt P11712); assay: Oxidation of flavonoids by reconstituted recombinant P450, LC-MS/MS; format: in vitro ADME
[3] = target: CYP3A4 (Homo sapiens, UniProt P08684); assay: as above; format: in vitro ADME
[4] = rats, oral or intraperitoneal administration; ref Das and Griffiths (1966); cited from earlier work
[5] = target: T1, CYP2B6 (Homo sapiens, UniProt P20813); format: in vitro ADME
T1 sequence (P20813 1-491): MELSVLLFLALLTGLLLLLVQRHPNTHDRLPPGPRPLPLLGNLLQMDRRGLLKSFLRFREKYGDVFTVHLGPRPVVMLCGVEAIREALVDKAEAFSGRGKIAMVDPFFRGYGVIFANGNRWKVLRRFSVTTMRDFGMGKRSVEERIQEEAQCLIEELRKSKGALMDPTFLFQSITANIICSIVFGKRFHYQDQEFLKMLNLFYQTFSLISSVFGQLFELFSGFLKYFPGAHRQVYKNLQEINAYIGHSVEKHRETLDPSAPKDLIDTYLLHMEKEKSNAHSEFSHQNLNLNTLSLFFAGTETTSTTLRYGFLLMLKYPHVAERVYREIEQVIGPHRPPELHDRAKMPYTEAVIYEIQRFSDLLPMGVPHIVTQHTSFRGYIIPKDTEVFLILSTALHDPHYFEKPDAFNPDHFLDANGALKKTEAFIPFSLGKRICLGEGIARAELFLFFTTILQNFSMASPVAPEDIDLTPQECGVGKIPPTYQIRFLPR

[6] = guinea pigs, oral 30 mg of flavone, ref Das and Griffiths (1966), cited from earlier work
[7] = target: T2, CYP2A6 (Homo sapiens, UniProt P11509); assay: Oxidation of flavonoids by reconstituted recombinant P450, LC-MS/MS
T2 sequence (P11509 1-494): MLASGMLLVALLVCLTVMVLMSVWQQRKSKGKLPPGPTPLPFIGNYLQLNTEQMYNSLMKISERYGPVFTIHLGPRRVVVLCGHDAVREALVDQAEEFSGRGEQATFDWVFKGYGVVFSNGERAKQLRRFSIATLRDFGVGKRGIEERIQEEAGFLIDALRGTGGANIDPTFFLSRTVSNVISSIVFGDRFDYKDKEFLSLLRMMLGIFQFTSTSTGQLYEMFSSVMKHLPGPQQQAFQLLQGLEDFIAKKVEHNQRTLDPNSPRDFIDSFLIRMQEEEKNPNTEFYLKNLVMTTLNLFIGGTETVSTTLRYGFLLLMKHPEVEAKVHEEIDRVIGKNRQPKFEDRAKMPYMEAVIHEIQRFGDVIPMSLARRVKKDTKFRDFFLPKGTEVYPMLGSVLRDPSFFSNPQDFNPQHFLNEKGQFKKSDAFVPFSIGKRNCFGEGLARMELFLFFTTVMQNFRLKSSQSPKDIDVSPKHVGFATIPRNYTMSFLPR

[8] = target: T2, CYP2A6; conditions: 20 min, 60 μM
[9] = test system: sample HH47 liver microsomes; format: in vitro ADME, human; conditions: substrate flavone 60 μM, inhibitor 10 μM
[10] = format: in vitro ADME; conditions: human, human liver microsomes (sample HH54), probe flavone (60 µM), formation of diOHFM4 (3´4´diOHF)

Chain of CYP3A4 (P08684 whole entry): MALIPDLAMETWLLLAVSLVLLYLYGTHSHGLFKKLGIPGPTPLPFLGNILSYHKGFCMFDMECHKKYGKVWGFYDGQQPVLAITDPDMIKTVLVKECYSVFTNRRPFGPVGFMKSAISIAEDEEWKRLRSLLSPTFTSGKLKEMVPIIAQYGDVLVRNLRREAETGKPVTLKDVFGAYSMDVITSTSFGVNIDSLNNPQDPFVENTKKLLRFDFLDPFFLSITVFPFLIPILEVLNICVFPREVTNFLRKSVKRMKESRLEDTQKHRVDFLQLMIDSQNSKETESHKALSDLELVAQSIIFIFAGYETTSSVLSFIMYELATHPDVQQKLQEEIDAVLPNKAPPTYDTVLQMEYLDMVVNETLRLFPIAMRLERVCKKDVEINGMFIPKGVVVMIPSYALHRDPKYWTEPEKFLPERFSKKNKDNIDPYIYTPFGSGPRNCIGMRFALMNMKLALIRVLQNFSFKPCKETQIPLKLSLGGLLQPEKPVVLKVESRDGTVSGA
Chain of CYP2C9 (P11712 whole entry): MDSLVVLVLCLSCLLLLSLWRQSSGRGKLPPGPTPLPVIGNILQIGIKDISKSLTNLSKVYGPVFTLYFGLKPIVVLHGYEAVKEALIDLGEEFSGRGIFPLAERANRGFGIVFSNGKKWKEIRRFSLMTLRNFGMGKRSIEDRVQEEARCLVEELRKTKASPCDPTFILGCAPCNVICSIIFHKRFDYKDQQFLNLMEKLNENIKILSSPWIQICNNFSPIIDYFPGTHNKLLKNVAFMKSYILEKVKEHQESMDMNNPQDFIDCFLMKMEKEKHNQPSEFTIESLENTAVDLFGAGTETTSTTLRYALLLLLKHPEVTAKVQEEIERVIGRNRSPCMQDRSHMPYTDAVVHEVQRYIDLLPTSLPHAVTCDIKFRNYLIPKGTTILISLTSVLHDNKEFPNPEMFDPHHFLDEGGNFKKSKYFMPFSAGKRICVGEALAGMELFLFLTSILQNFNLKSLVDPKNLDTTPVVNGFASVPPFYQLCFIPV

SMILES: O=c1cc(-c2ccccc2)oc2ccccc12 [flavone]
- production of OHFM6, OHFM9, and diOHFM4 [1]: very little
- activity in oxidizing flavone [2]: not very active
- activity in oxidizing flavone [3]: not very active
- 3´4´diOHF found in urine [4]: small amounts
- activity in oxidizing flavone [5]: not very active
- urinary excretion of 4´OHF ([6]; first day): 622 µg
- urinary excretion of 4´OHF ([6]; fourth day): 0 µg
- urinary excretion of 4´OHF ([6]; second day): 309 µg
- urinary excretion of 4´OHF ([6]; third day): 15 µg
- activity in oxidizing to OHFM6 (4´OHF) and OHFM9 (3´OHF) [7]: highly active

SMILES: COc1ccc(-c2cc(=O)c3ccccc3o2)cc1 [4´MeF, 4´-methoxyflavone]
- rate of O-demethylation to form M2 (4´OHF) [8]: 0.029 min⁻¹
- rate of formation of M1 (3´4´diOHF) [8]: 0.0004 min^1

SMILES: O=c1cc(-c2ccccc2)oc2c1ccc1ccccc12 [ANF, α-naphthoflavone]
- inhibition of formation of OHFM5, OHFM7, 6OHF, and OHFM12 [9]: inhibited
- inhibition at 20 min [10]: 65%

SMILES: O=c1ccc2ccccc2o1 [coumarin]
- inhibition of formation of OHFM6 and OHFM9 [9]: strongly inhibited
- inhibition at 20 min [10]: 75%
